Calls of active or inactive are those of the source.

Data set [1] is described as follows: Apparent permeability across apical to basolateral side in MDCK-MDR1 cells at 1 uM after 1 hr by LC/MS/MS analysis. It is filed as ADME, cell-based, Canis lupus familiaris. The conditions noted are these: dog.
The nature of data set [2]: Half life in CD1 mouse at 10 mg/kg, po by UPLC analysis. It is filed as ADME, organism-based. The conditions noted are these: in vivo.
Another data set has as its system Canis familiaris. Put plainly: AUCt in Beagle dog at 10 mg/kg, po via gavage by UPLC analysis. It is filed as ADME, organism-based, Canis lupus familiaris. Particulars: in vivo.
Data set [3] is described as follows: Half life in Sprague-Dawley rat at 10 mg/kg, po via gavage by UPLC analysis. The format is ADME, organism-based. The conditions noted are these: in vivo.
The nature of data set [4]: Oral bioavailability in Sprague-Dawley rat at 10 mg/kg administered via gavage by UPLC analysis. It is filed as ADME, organism-based. The conditions noted are these: in vivo.
Data set [5] can be described thus: Intrinsic clearance in monkey liver microsomes at 1 uM measured up to 30 mins by LC-MS/MS analysis. The format is ADME, Macaca mulatta, microsome. Particulars: rhesus monkey, read-out: CLH. (Microsomes from liver hold many membrane-bound enzymes, among them those of drug oxidation.)
Another data set has as its target T1, Cytochrome P450 1A2 (Homo sapiens, UniProt P05177).
T1 sequence (P05177 whole entry): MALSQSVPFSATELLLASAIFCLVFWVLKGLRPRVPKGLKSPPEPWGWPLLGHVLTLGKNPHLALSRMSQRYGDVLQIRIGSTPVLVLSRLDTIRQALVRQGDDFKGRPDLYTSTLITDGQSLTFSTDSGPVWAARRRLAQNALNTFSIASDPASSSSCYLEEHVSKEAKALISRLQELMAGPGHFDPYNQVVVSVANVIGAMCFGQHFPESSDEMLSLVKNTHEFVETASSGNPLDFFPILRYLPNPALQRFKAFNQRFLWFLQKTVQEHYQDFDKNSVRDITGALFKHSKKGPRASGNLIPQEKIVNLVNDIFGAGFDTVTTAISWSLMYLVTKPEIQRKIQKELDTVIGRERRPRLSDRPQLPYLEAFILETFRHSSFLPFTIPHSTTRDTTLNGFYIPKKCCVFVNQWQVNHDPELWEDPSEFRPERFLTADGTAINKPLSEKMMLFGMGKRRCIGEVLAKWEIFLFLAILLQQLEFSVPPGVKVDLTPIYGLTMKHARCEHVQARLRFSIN
Put plainly: Inhibition of CYP1A2 in human liver microsomes using phenacetin after 10 mins in presence of NADPH by LC-MS/MS analysis. It is filed as ADME.

The next data set concerns the target Cytochrome P450 2C19 (Homo sapiens, UniProt P33261). The data set can be described thus: Inhibition of CYP2C19 in human liver microsomes using S-mephenytoin as substrate after 20 mins in presence of NADPH by LC-MS/MS analysis. The format is ADME.
Data set [6] can be described thus: Protein binding in dog plasma at 10 uM after 4 hrs by LC-MS/MS analysis. Particulars: read-out: PPB (converted). It is filed as ADME, cell-free, Canis lupus familiaris.
A short description of data set [7]: Protein binding in monkey plasma at 10 uM after 4 hrs by LC-MS/MS analysis. The format is ADME, cell-free, Macaca mulatta. The conditions noted are these: rhesus monkey, read-out: PPB (converted).
The subject of data set [8] is Mus musculus. The data set can be described thus: In vivo inhibition of HIF-2alpha in SCID/Biege mouse xenografted with human 786-O cells assessed as reduction in VEGFA mRNA levels at 10 mg/kg, po bid for 3 days and measured after 12 hrs post last dose by qRT-PCR analysis. The format is functional, organism-based. A general note: A xenograft is tissue or cells of one species grown in another, often human tumour cells in immunodeficient mice.

In data set [9] the test system is Mus musculus. Put plainly: Toxicity in SCID/Biege mouse xenografted with human 786-O cells assessed as morbidity at 10 mg/kg, po bid for 21 days. The format is organism-based. Particulars: in vivo, 504 h.
In a further data set the target is hERG (KCNH2) (Homo sapiens, UniProt Q12809). The data set can be described thus: Inhibition of human ERG expressed in mammalian cells at 10 uM after 3 mins by QPatch clamp assay. The format is cell-based. The conditions noted are these: mammalian cells that express human ERG. (In general: In patch-clamp work, channel activity is measured electrically.)
Another data set concerns Rattus norvegicus. The data set can be described thus: Drug metabolism in Sprague-Dawley rat assessed as formation of 3-( (4-( ( D ifluoromethyl)-1,1-dioxido-3-oxo-2,3-dihydrobenzo[b]thiophen-5-yl)oxy)-5-fluorobenzonitrile at 10 mg/kg, po by UPLC analysis. Particulars: in vivo. It is filed as ADME, organism-based.

Chain of hERG (KCNH2) (Q12809 whole entry): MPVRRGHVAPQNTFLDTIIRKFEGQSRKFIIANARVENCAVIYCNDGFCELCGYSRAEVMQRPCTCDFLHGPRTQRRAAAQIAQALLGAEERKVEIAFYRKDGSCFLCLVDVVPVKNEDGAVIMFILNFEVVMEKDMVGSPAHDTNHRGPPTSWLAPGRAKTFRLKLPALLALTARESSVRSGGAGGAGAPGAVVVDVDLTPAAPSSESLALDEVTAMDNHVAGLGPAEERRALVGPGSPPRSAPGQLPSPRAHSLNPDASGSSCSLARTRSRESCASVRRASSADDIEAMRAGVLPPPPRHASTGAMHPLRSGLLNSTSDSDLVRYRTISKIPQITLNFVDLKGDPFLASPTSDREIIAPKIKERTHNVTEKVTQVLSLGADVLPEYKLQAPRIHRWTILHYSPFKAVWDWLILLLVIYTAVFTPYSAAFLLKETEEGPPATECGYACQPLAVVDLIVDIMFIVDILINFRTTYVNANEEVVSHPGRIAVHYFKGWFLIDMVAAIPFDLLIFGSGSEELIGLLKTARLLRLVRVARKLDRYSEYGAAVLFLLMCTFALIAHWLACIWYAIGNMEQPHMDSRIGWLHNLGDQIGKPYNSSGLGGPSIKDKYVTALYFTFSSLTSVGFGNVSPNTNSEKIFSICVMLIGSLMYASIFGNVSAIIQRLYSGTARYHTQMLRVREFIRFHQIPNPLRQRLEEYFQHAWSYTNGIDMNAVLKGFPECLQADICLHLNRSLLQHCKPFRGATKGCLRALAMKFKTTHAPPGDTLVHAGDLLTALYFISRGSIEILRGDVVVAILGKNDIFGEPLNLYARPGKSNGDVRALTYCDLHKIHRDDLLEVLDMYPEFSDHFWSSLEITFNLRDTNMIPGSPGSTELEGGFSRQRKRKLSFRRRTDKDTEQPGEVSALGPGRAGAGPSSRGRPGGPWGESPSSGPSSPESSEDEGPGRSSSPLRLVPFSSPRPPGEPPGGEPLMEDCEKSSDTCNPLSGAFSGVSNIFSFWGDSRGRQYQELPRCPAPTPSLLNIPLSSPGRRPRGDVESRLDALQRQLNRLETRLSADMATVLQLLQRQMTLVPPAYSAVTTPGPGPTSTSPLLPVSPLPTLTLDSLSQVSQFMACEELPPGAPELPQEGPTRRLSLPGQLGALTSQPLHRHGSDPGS
Chain of Cytochrome P450 2C19 (P33261 whole entry): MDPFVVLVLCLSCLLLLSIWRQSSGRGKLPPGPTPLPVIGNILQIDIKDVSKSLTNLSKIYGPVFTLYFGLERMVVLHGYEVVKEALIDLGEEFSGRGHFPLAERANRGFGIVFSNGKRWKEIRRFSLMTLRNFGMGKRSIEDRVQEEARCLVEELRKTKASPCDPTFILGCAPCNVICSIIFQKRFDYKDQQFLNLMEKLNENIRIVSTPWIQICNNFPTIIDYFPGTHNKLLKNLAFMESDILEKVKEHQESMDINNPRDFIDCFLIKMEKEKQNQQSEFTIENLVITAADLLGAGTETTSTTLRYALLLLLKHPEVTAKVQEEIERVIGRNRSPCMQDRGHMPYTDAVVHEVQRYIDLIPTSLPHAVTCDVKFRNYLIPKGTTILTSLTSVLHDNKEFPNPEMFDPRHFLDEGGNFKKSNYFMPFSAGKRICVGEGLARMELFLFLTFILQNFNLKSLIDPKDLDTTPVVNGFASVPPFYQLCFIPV

For the compound `CS(=O)(=O)c1ccc(Oc2cc(F)cc(C#N)c2)c2c1[C@H](O)C(F)(F)C2`, in [1], the Papp A→B at 1 h, 1 µM turned out to be 2.98 ×10⁻⁶ cm/s. For the same compound, the half-life in [2] and in [3] was 3.3 h throughout. The AUCt with Canis familiaris was found to be 6.2 µM·h. Besides, the bioavailability in [4] came out at 40%. In addition, the CLint scaled at 1 µM in [5] turned out to be 5.4 mL/min/kg. In addition, the IC50 was more than 50 µM at Cytochrome P450 1A2 and 46 µM on Cytochrome P450 2C19. Further, the fraction unbound at 4 h, 10 µM in [6] was 0.25; in data set [7], 0.26. For the same compound, the inhibition entry in the data set on Mus musculus [8] was “Active”. Besides, in the data set on Mus musculus [9], the Activity entry is reported as “Non-Toxic”. At hERG (KCNH2), the inhibition at 0.05 h, 10 µM is 8.2%.
For `N#Cc1cc(F)cc(Oc2ccc3c(c2C(F)F)[C@@H](O)C(F)(F)S3(=O)=O)c1`, the Papp A→B at 1 h, 1 µM in data set [1] turned out to be 2.6 ×10⁻⁶ cm/s. The figures for the half-life in [2] and in [3] were 6.5 h and 3.7 h, respectively. For the same compound, the AUCt in the data set with Canis familiaris came to 12.6 µM·h. This compound also gave a bioavailability in [4] of 36%. Besides, the CLint scaled at 1 µM in [5] was less than 4 mL/min/kg. The IC50 at Cytochrome P450 1A2 was more than 50 µM. The results for the fraction unbound at 4 h, 10 µM in [6] and in data set [7] were 0.18 and 0.38, respectively. For the same compound, the inhibition entry in the data set with Mus musculus [8] is “Active”. Besides, the Activity entry with Mus musculus [9] is on record as “Non-Toxic”. Also, on hERG (KCNH2), the inhibition at 0.05 h, 10 µM is 17%. Besides, the Drug metabolism result in the data set with Rattus norvegicus is “Metabolite_Detected”.

As a reminder, the Papp A→B is how fast a substance crosses the layer from the apical side. The term half-life denotes the time needed for the level to fall by half in the phase considered. As a reminder, the bioavailability is the share of a dose that reaches the circulation, judged against a reference dose that is usually intravenous. Usually IC50 stands for the point on the concentration scale where inhibition reaches its midpoint. In general, inhibition refers to the percentage by which the read-out fell short of the control.

The record behind these values is ChEMBL document CHEMBL4152377, “Design and Activity of Specific Hypoxia-Inducible Factor-2α (HIF-2α) Inhibitors for the Treatment of Clear Cell Renal Cell Carcinoma: Discovery of Clinical Candidate ( S)-3-((2,2-Difluoro-1-hydroxy-7-(methylsulfonyl)-2,3-dihydro-1 H-inden-4-yl)oxy)-5-fluorobenzonitrile (PT2385)” (J Med Chem, 2018).
